Test results: US5250542A, “Peripherally selective piperidine carboxylate opioid antagonists” (Eli Lilly and Company, priority 1992, dated 1993)
Where a name gives a salt, the structure may show the parent alone. Read-outs that look alike come from different tables or passages of the source.

How the values were obtained:
opioid receptor = molecular target: T1, opioid receptor (Mus musculus, UniProt P42866); test: mouse writhing analgesis test: block of morphine-induced analgesia; assay type: in vivo, CF-1 male mice; set-up: unit not given here; conditions: dose of antagonist that reduced the inhibition of writhing produced by 1.25 mg/kg morphine sulfate to 50%; subcutaneous, 20 min before acetic acid
T1 construct: Five CF-1 male mice (Charles River, Portage, Mich.); from tissue; host or cells: living CF-1 male mice (in vivo test; endogenous receptor)
In short: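 Male CF-1 mice (~20 g, fasted overnight, n=5) dosed subcutaneously 20 min before i.p. 0.6% acetic acid; writhes counted for 10 min starting 5 min post-injection. Antagonism measured as blockade of morphine-induced inhibition of writhing, percent versus vehicle controls; ED50 defined as 50% writhing inhibition.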

[1] = molecular target: T2, peripheral opioid receptors (Mus musculus, UniProt P42866); test: precipitated diarrhea in morphine-maintained mice (peripheral opioid activity) and comparison with the writhing test; assay type: in vivo; conditions: for Ratio (AD50 mouse writhing test / ED50 mouse diarrhea test): higher ratio = greater relative antagonism of peripheral opioid receptors; for ED50: mouse, 0.5 h, morphine-maintained mice, antagonist subcutaneous or oral, 30 min observation
T2 construct: Mice maintained (6 mice/cage) on 0.01M saccharin water with 1 g/1 morphine sulfate; from tissue; host or cells: living morphine-maintained mice (in vivo test; endogenous receptor)
In short: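 Morphine-dependent mice (1 g/l morphine sulfate in drinking water ≥10 days, withdrawn 45 min before dosing) received antagonist subcutaneously or orally, 5 mice/dose. Diarrhea (and jumping) were scored over 30 min and doses lowered to find the diarrhea threshold. Peripheral selectivity was taken as writhing AD50 divided by diarrhea ED50.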

mu receptor = molecular target: T3, mu receptor (Rattus norvegicus, UniProt P33535); test: opioid receptor binding assay, [3H] NAL (tritiated naloxone), mu receptor; set-up: species or system rat (Male Sprague Dawley), brain minus cerebellum
T3 construct: rat whole brain minus cerebellum for mu was homogenized; from tissue; host or cells: brain of male Sprague Dawley rats, whole brain minus cerebellum, homogenate fraction
In short: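 Displacement of [3H]naloxone was measured on rat whole brain minus cerebellum membranes, preincubated 20 min and incubated 20 min at 37° C, with filtration separating bound ligand. Ki was derived from IC50 and ligand KD. Percent displacement was also recorded at 10 nM and 100 nM test compound.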

[2] = 20 min, read-out: % displacement at 10 nM
[3] = 20 min, read-out: % displacement at 100 nM
[4] = 20 min, read-out: % displacement at 10 nM, 10 nM test compound, [3H] naloxone 0.5 nM
[5] = 20 min, read-out: % displacement at 100 nM, 100 nM test compound, [3H] naloxone 0.5 nM

T3 sequence (P33535 whole entry): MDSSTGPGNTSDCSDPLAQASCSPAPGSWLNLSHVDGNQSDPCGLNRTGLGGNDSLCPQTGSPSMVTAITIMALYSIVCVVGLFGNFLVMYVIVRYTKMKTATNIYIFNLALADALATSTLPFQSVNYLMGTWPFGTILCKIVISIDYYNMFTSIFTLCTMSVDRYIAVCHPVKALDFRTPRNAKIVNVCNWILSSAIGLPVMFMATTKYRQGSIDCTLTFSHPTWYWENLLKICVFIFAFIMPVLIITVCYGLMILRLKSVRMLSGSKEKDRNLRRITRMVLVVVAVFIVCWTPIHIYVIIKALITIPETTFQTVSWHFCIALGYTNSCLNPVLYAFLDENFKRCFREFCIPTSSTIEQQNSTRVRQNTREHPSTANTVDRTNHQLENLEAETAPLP
T2 sequence (P42866 whole entry): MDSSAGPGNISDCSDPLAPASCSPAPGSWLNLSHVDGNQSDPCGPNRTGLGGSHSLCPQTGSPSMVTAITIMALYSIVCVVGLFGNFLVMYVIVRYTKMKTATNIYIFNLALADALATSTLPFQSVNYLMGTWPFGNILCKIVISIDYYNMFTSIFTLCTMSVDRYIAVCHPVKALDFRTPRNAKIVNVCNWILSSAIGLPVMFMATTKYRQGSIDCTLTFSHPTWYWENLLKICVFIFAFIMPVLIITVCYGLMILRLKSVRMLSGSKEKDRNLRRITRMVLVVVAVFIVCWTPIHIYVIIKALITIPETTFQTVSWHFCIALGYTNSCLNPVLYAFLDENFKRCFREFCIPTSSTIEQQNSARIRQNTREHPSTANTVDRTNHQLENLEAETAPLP
T1 sequence (P42866 whole entry): as above

C[C@H]1CN(CC(Cc2ccccc2)C(=O)NCC(=O)O)CC[C@@]1(C)c1cccc(O)c1 (stereo partly shown) [Example 44, 2-[[3-[4-(3-hydroxyphenyl)-3,4-dimethyl-1-piperidinyl]-1-oxo-2-(phenylmethyl)propyl]-amino]acetic acid monohydrate]
AD50 (opioid receptor): > 40
Ratio (AD50 mouse writhing test / ED50 mouse diarrhea test) [1]: > 266
ED50 [1]: 0.15 mg/kg
inhibition at 0.01 µM (mu receptor; [2]): 87%
inhibition at 0.1 µM (mu receptor; [3]): 94%
Ki (mu receptor; [3H] naloxone 0.5 nM, pH 7.4, 37° C., 20 min, read-out: Ki): 0.89 nM

CCNC(=O)CNC(=O)C(Cc1ccccc1)CN1CC[C@@](C)(c2cccc(O)c2)[C@@H](C)C1 (stereo partly shown) [Example 45, N-ethyl-2-[[2-(phenylmethyl-)-1-oxo-3-[4-(3-hydroxyphenyl)-3,4-dimethyl-1-piperidinyl]propyl]-amino]ethanamide]
AD50 (opioid receptor): 2.6
Ratio (AD50 mouse writhing test / ED50 mouse diarrhea test) [1]: 11
ED50 [1]: 0.24 mg/kg
Ki (mu receptor): 1.28 nM
inhibition at 0.01 µM (mu receptor; [4]): 93%
inhibition at 0.1 µM (mu receptor; [3]): 98%

C[C@H]1CN(CC(Cc2ccccc2)C(=O)NCC(N)=O)CC[C@@]1(C)c1cccc(O)c1 (stereo partly shown) [Example 46, N-(2-amino-2-oxoethyl)-3-[3,4-dimethyl-4-(3-hydroxyphenyl)-1-piperidinyl]-2-phenylmethyl propanamide monohydrochloride monohydrate]
AD50 (opioid receptor): 40
Ratio (AD50 mouse writhing test / ED50 mouse diarrhea test) [1]: 571
ED50 [1]: 0.07 mg/kg
Ki (mu receptor): 0.31 nM
inhibition at 0.01 µM (mu receptor; [4]): 99%
inhibition at 0.1 µM (mu receptor; [5]): 95%

C[C@H]1CN(CC(Cc2ccccc2)C(=O)NCC(=O)N(C)C)CC[C@@]1(C)c1cccc(O)c1 (stereo partly shown) [Example 47, N,N-dimethyl-2-[[3-4-(3-hydroxyphenyl)-3,4-dimethyl-1-piperidinyl]-2-(phenylmethyl)-1-oxypropyl]amino]acetamide monohydrochloride monohydrate]
AD50 (opioid receptor): 40
Ratio (AD50 mouse writhing test / ED50 mouse diarrhea test) [1]: 267
ED50 [1]: 0.15 mg/kg
Ki (mu receptor): 2.11 nM
inhibition at 0.01 µM (mu receptor; [4]): 89%
inhibition at 0.1 µM (mu receptor; [5]): 95%

CC(C)NC(=O)CNC(=O)C(Cc1ccccc1)CN1CC[C@@](C)(c2cccc(O)c2)[C@@H](C)C1 (stereo partly shown) [Example 48, N-(1-methylethyl)-2-[[3-[4-(3-hydroxyphenyl)-3,4-dimethyl-1-piperidinyl]-2-(phenylmethyl)-1-oxopropyl]amino]acetamide hydrochloride monohydrate]
AD50 (opioid receptor): > 40
Ratio (AD50 mouse writhing test / ED50 mouse diarrhea test) [1]: > 400
ED50 [1]: 0.1 mg/kg
Ki (mu receptor): 1.82 nM
inhibition at 0.01 µM (mu receptor; [4]): 96%
inhibition at 0.1 µM (mu receptor; [5]): 100%

CCCNC(=O)CNC(=O)C(Cc1ccccc1)CN1CC[C@@](C)(c2cccc(O)c2)[C@@H](C)C1 (stereo partly shown) [Example 49, N-2-propylamino-2-oxoethyl]-3-[4-(3-hydroxyphenyl)-3,4-dimethyl-1-piperidinyl]-2-phenylmethyl propanamide monohydrate hydrochloride]
AD50 (opioid receptor): 6.08
Ratio (AD50 mouse writhing test / ED50 mouse diarrhea test) [1]: 61
ED50 [1]: 0.1 mg/kg
Ki (mu receptor): 0.54 nM
inhibition at 0.01 µM (mu receptor; [4]): 98%
inhibition at 0.1 µM (mu receptor; [5]): 100%

CC(C)CNC(=O)CNC(=O)C(Cc1ccccc1)CN1CC[C@@](C)(c2cccc(O)c2)[C@@H](C)C1 (stereo partly shown) [Example 50, N-2-[(2-methylpropyl)amino]-2-oxo-ethyl]-3-[3,4-dimethyl-4-(3-hydroxyphenyl)-1-piperidinyl-2-phenylmethyl propanamide monohydrate hydrochloride]
AD50 (opioid receptor): 14.3
Ratio (AD50 mouse writhing test / ED50 mouse diarrhea test) [1]: 26
ED50 [1]: 0.54 mg/kg
Ki (mu receptor): 1.2 nM
inhibition at 0.01 µM (mu receptor; [4]): 94%
inhibition at 0.1 µM (mu receptor; [5]): 100%

CC(C)OC(=O)CNC(=O)C(Cc1ccccc1)CN1CC[C@@](C)(c2cccc(O)c2)[C@@H](C)C1 (stereo partly shown) [Example 51, 2-[[2-(phenylmethyl)-3-[4-(3-hydroxyphenyl)-3,4-dimethyl-1-piperidinyl]-1-oxopropyl]-amino]ethanoic acid 2-propyl ester monohydrochloride]
AD50 (opioid receptor): 3.8
Ratio (AD50 mouse writhing test / ED50 mouse diarrhea test) [1]: 25
ED50 [1]: 0.15 mg/kg
Ki (mu receptor): 5.43 nM
inhibition at 0.01 µM (mu receptor; [4]): 85%
inhibition at 0.1 µM (mu receptor; [5]): 97%

C[C@H]1CN(CC(Cc2ccccc2)C(=O)NCC(=O)OCC2CCCCC2)CC[C@@]1(C)c1cccc(O)c1 (stereo partly shown) [Example 53, 2-[[2-(phenylmethyl)-1-oxo-3-[4-(3-hydroxyphenyl)-3,%-dimethyl-1-piperidinyl]propylamino]-ethanoic acid cyclohexylmethyl estermonohydrochloride]
AD50 (opioid receptor): > 40
Ratio (AD50 mouse writhing test / ED50 mouse diarrhea test) [1]: > 23
ED50 [1]: 1.7 mg/kg
inhibition at 0.01 µM (mu receptor; 20 min, 10 nM test compound, [3H] naloxone 0.5 nM, read-out: % displacement at 10 nM): 2%
inhibition at 0.1 µM (mu receptor; 20 min, 100 nM test compound, [3H] naloxone 0.5 nM, read-out: % displacement at 100 nM): 11%

CC(C)COC(=O)CNC(=O)C(Cc1ccccc1)CN1CC[C@@](C)(c2cccc(O)c2)[C@@H](C)C1 (stereo partly shown) [Example 54, 2-[2-(phenylmethyl)-1-oxo-3-4-(3-hydroxyphenyl)-3,4-dimethyl-1-piperidinyl]propyl]amino]-ethanoic acid 2-methylpropyl ester monohydrochloride]
AD50 (opioid receptor): 23
Ratio (AD50 mouse writhing test / ED50 mouse diarrhea test) [1]: 1150
ED50 [1]: 0.02 mg/kg
inhibition at 0.01 µM (mu receptor; [4]): 78%
inhibition at 0.1 µM (mu receptor; [3]): 98%
Ki (mu receptor; [3H] naloxone 0.5 nM, pH 7.4, 37° C., 20 min): 2.27 nM

C[C@H]1CN(CC(Cc2ccccc2)C(=O)NCC(=O)OCc2ccccc2)CC[C@@]1(C)c1cccc(O)c1 (stereo partly shown) [Example 55, 2-[[2-(phenylmethyl)-1-oxo-3-[4-(3-hydroxyphenyl)3,4-dimethyl-1-piperidinyl]propyl]amino]-ethanoic acid phenylmethyl ester hydrochloride]
AD50 (opioid receptor): 7.5
Ratio (AD50 mouse writhing test / ED50 mouse diarrhea test) [1]: 63
ED50 [1]: 0.12 mg/kg
inhibition at 0.01 µM (mu receptor; [2]): 83%
inhibition at 0.1 µM (mu receptor; [3]): 97%

C[C@H]1CN(CC(Cc2ccccc2)C(=O)NCCC(=O)OCc2ccccc2)CC[C@@]1(C)c1cccc(O)c1 (stereo partly shown) [Example 56, hydrochloride]
AD50 (opioid receptor): 40
Ratio (AD50 mouse writhing test / ED50 mouse diarrhea test) [1]: 667
ED50 [1]: 0.06 mg/kg
Ki (mu receptor): 0.49 nM
inhibition at 0.01 µM (mu receptor; [4]): 97%
inhibition at 0.1 µM (mu receptor; [3]): 98%

C[C@H]1CN(CC(Cc2ccccc2)C(=O)NCCC(=O)O)CC[C@@]1(C)c1cccc(O)c1 (stereo partly shown) [Example 57, monohydrate]
AD50 (opioid receptor): > 40
Ratio (AD50 mouse writhing test / ED50 mouse diarrhea test) [1]: > 400
ED50 [1]: 0.1 mg/kg
Ki (mu receptor): 0.5 nM
inhibition at 0.01 µM (mu receptor; [2]): 92%
inhibition at 0.1 µM (mu receptor; [3]): 98%

CNC(=O)CCNC(=O)C(Cc1ccccc1)CN1CC[C@@](C)(c2cccc(O)c2)[C@@H](C)C1 (stereo partly shown) [Example 59, N-(methyl)-3-[[3-[4-(3-hydroxyphenyl)-3,4-dimethyl-1-piperidinyl]-2-(phenylmethyl)-1-oxopropyl]amino]propanamide monohydrochloride]
AD50 (opioid receptor): 5.9
Ratio (AD50 mouse writhing test / ED50 mouse diarrhea test) [1]: 11
ED50 [1]: 0.54 mg/kg
Ki (mu receptor): 4.64 nM
inhibition at 0.01 µM (mu receptor; [4]): 88%
inhibition at 0.1 µM (mu receptor; [5]): 100%

CCNC(=O)CCNC(=O)C(Cc1ccccc1)CN1CC[C@@](C)(c2cccc(O)c2)[C@@H](C)C1 (stereo partly shown) [Example 60, N-(ethyl)-3-[[3-[4-(3-hydroxyphenyl)-3,4-dimethyl-1-piperidinyl]-2-(phenylmethyl)-1-oxopropyl]amino]propanamide monohydrochloride]
AD50 (opioid receptor): 11.2
Ratio (AD50 mouse writhing test / ED50 mouse diarrhea test) [1]: 112
ED50 [1]: 0.1 mg/kg
Ki (mu receptor): 1.89 nM
inhibition at 0.01 µM (mu receptor; [4]): 100%
inhibition at 0.1 µM (mu receptor; [5]): 100%

CNC(=O)CCCNC(=O)C(Cc1ccccc1)CN1CC[C@@](C)(c2cccc(O)c2)[C@@H](C)C1 (stereo partly shown) [Example 62, N-(methyl)-4-[[3-]4-(3-hydroxyphenyl)-3,4-dimethyl-1-piperidinyl]-2-(phenylmethyl)-1-oxopropyl]amino]butanamide monohydrochloride monohydrate]
AD50 (opioid receptor): 18.3
Ratio (AD50 mouse writhing test / ED50 mouse diarrhea test) [1]: 122
ED50 [1]: 0.15 mg/kg
Ki (mu receptor): 1.18 nM
inhibition at 0.01 µM (mu receptor; [4]): 89%
inhibition at 0.1 µM (mu receptor; [3]): 98%

C[C@H]1CN(CC(Cc2ccccc2)C(=O)NCCCC(N)=O)CC[C@@]1(C)c1cccc(O)c1 (stereo partly shown) [Example 63, 4-[[3-[4-(3-hydroxyphenyl)-3,4-dimethyl-1-piperidinyl]-2-(phenylmethyl)-1-oxopropyl]-amino]butanamide monohydrochloride]
AD50 (opioid receptor): 26
Ratio (AD50 mouse writhing test / ED50 mouse diarrhea test) [1]: 90
ED50 [1]: 0.29 mg/kg
Ki (mu receptor): 2 nM
inhibition at 0.01 µM (mu receptor; [4]): 89%
inhibition at 0.1 µM (mu receptor; [5]): 100%
